Measurements reported in patent publication US12377191B2, “Chondroinductive peptides and compositions and methods of use thereof” (The Board of Regents of the University of Oklahoma, priority 2018, dated 2025).
Where no end group is shown, it is not given here.

What was measured:
[1] = tested on: rat bone marrow mesenchymal stem cells (rBMSCs); assay: Gene expression (rt-PCR) of rBMSCs on TCT plates, SPPEPS coated or in medium; assay type: cell-based
Procedure: In one set of experimental groups, the SPPEPS (SEQ ID NO:2) peptide was adsorbed to the well plate surface. The peptide was dissolved in sterile DI water (20 μg/mL), sterile-filtered (0.22 μm), and was added to sterile 96-well plates to reach the desired coating concentrations (0.5, 1 and 3 μg/mm2) before overnight water evaporation at room temperature in sterile conditions. The rBMSCs were thawed and after passage 4 were cultured on the plates (150,000 cells/well, i.e., […]), for the control groups the rBMSCs were cultured (150,000 cells/well) on the uncoated TCT plates and the cell culture medium was changed every second day.
In a separate set of experimental groups, SPPEPS (SEQ ID NO:2) peptide was included in soluble form in the medium instead of being coated on the surface. rBMSCs were cultured on 96-well plates (150,000 cells/well) with cell culture medium containing SPPEPS (SEQ ID NO:2) (50, 100 and 500 ng/ml). The cell culture medium containing the peptide was changed every second day.
rBMSCs were cultured either on TCT plastic plates or on a hydrogel-coated surface. For the cells cultured on TCT plates, three different concentrations of SPPEPS (SEQ ID NO:2) peptide (50, 100 and 500 ng/ml) in cell culture medium, three different coating concentrations (0.5, 1 and 3 μg/mm2) and a control group (no growth factor or peptide in the cell culture medium) were chosen (n=6) and the peptide chondroinductivity was evaluated by rt-PCR after 3 days (see FIGS. 2-4 and gene expression subsection below).
The gene expressions were analyzed for all the rBMSCs samples cultured on the TCT plates after 3 days (n=6) and all the rBMSCs cultured on the hydrogel surface after 3 days (n=4). The gene expressions of each sample were evaluated in triplicate. To prepare the samples for gene expression, the mRNAs were extracted after 3 days using Qiagen RNeasy mini kit (Valencia, CA) following the kit instructions, before reverse transcription using a cDNA kit (Invitrogen, Carlsbad, CA). rt-PCR was performed with a qTOWER^3 Thermal Cycler (Upland. CA) using TaqMan Col2A1, Sox9, ACAN and GAPDH primers (Invitrogen, Carlsbad, CA). GAPDH was used as an endogenous control, with relative gene expression measured using the 2^−ΔΔCt method. For cells on both surfaces, the calibrators were the rBMSCs at passage 4 before transferring them to the 96-well plates.

[2] = tested on: rBMSC spheroids; assay: Collagen II gene expression of rBMSC spheroids (SPPEPS vs TGF-β3); assay type: cell-based, rat; details: 100 ng/ml SPPEPS; normoxic and hypoxic; n=5
Procedure: Collagen II gene expression with control (no supplement), TGF-β3, or SPPEPS (1, 100 ng/ml). Hypoxic bars are righthand, normoxic bars are lefthand. n=5, p<0.05 difference from αnormoxic control, βhypoxic control, *normoxic counterpart, SSPPEPS (SEQ ID NO: 2) 1 ng/ml, #normoxic TGF-β3,!all groups.

[3] = tested on: rat bone marrow mesenchymal stem cells (rBMSCs); assay: Preliminary study: chondroinductivity with rBMSCs by rt-PCR; assay type: cell-based; details: 100 ng/ml in medium, 3 days, p<0.05
Procedure: In a preliminary study, the chondroinductivities of Link N peptide (SEQ ID NO: 9, Table 2) and SPPEPS (SEQ ID NO:2) with rBMSCs were evaluated at two plate coating densities (0.5 and 1 μg/mm2) and two soluble concentrations (10 and 100 ng/mL) after 3 days by rt-PCR (n=3). For rBMSCs cultured on TCT plates the chondroinductivity was compared with negative control (no growth factor or peptide in the cell culture medium) and positive control group. The positive control was a known chondrogenic growth factor in lieu of the SPPEPS (SEQ ID NO:2) peptide, i.e., 10 ng/ml (dissolved in rBMSCs cell culture medium) human transforming growth factor-β3 (TGF-β3, R&D systems, Minneapolis, MN).
The gene expressions were analyzed for all the rBMSCs samples cultured on the TCT plates after 3 days (n=6) and all the rBMSCs cultured on the hydrogel surface after 3 days (n=4). The gene expressions of each sample were evaluated in triplicate. […] GAPDH was used as an endogenous control, with relative gene expression measured using the 2^−ΔΔCt method. […]

[4] = 50 ng/ml, 100 ng/ml and 500 ng/ml groups, 3 days
[5] = 100 ng/ml in medium, 3 days, p<0.05
[6] = coating 0.5 μg/mm2, 3 days, p<0.05
[7] = coating 1 μg/mm2, 3 days, p<0.05
[8] = coating 3 μg/mm2, 3 days, p<0.05

## SPPEPS [chondroinductive peptide]
[1]; 50 ng/ml in medium vs coating 0.5 μg/mm2
  Sox9 gene expression, times higher than coating group: 4.5 times
[1]; 50 ng/ml in medium vs coating 1 μg/mm2
  Sox9 gene expression, times higher than coating group: 4.9 times
[1]; 50 ng/ml in medium vs coating 3 μg/mm2
  Sox9 gene expression, times higher than coating group: 5.2 times
[1]; 50 ng/ml in medium, 3 days, p<0.05
  aggrecan gene expression higher compared to the control group: 34%
[1]; [4]
  aggrecan gene expression higher than the control group (FIG. 4 legend): ~35%
  aggrecan gene expression relative to the control group (FIG. 4 legend): about 1.5 ×
[1]; 100 ng/ml in medium, 3 days
  collagen type II gene expression higher than the control group (FIG. 3 legend): 35%
[1]; [5]
  aggrecan gene expression higher compared to the control group: 35%
  collagen type II gene expression, times higher than in the control group: 1.5 times
[1]; 100 ng/ml in medium, p<0.05
  collagen type II gene expression, times higher compared to SPPEPS 50 ng/mL: 1.5 times
  collagen type II gene expression, times higher compared to SPPEPS 500 ng/mL: 1.6 times
[1]; 500 ng/ml in medium vs coating 0.5 μg/mm2
  Sox9 gene expression, times higher than coating group: 3.2 times
[1]; 500 ng/ml in medium vs coating 1 μg/mm2
  Sox9 gene expression, times higher than coating group: 3.4 times
[1]; 500 ng/ml in medium vs coating 3 μg/mm2
  Sox9 gene expression, times higher than coating group: 3.6 times
[1]; 500 ng/ml in medium, 3 days, p<0.05
  aggrecan gene expression higher compared to the control group: 31%
[1]; [6]
  Sox9 gene expression: control group times higher than coating group: 4.0 times
  collagen type II gene expression lower than in the control group: 61%
[1]; [7]
  Sox9 gene expression: control group times higher than coating group: 4.2 times
  collagen type II gene expression lower than in the control group: 74%
[1]; [8]
  Sox9 gene expression: control group times higher than coating group: 4.5 times
  aggrecan gene expression higher compared to the control group: 31%
  collagen type II gene expression lower than in the control group: 75%
[2]
  chondroinduction (collagen II gene expression) compared to TGF-β3: outperforms TGF-β3
[3]
  collagen type II gene expression, times higher than in the control group: 2.3 times
